Source: patent publication US20030078272A1, “Methods of use of fluoroquinolone compounds against ciprofloxacin-resistant and ciprofloxacin-sensitive pathogenic bacteria” (SmithKline Beecham Corporation, priority 1999, published 2003)
Values after ≈ are worked out from the molar mass of the structure shown. Where two headings read alike, the source gives them in different places.

What was measured:
Assay type in all cases: cell-based, Streptococcus pneumoniae
[1] = tested on: pneumococci; assay: Agar dilution MICs; conditions: for MIC50 / MIC90: Streptococcus pneumoniae
Protocol: (§1) Cultures were maintained at −70° C. in double-strength skim milk (Difco Laboratories, Detroit, Mich.). Gemifloxacin susceptibility powder, disks and E-tests (AB Biodisk, Solna, Sweden) were obtained from SmithKline Beecham Laboratories, Collegeville, Pa., USA.
(§2) These were performed (Jacobs, et al., Clin. Infect. Dis. 15:119-127, 1992 and Clark, et al., J. Clin. Microbiol. 36:3579-3584, 1998) on Mueller-Hinton agar supplemented with 5% sheep blood, incorporating compounds at concentrations from 0.002-8 μg/ml in doubling dilutions. Inocula were prepared by suspending growth from overnight cultures in Mueller-Hinton broth to a turbidity of a 0.5 McFarland standard. Final inocula contained 10^4 organisms/spot. Plates were inoculated with a Steers replicator with 3 mm inoculating pins, and incubated overnight at 35° C. in ambient air. The lowest concentration of antibiotic showing no growth was read as the MIC. Quality control strains—Staphylococcus aureus […] and Streptococcus pneumoniae ATCC 49619—were included in each run.

[2] = tested on: pneumococci; assay: MIC testing, all methods together (agar dilution, microdilution, E-test); conditions: agar dilution and microdilution in air, E-test in air and CO2, all strains
Protocol: as §2
(§3) These were determined by the method recommended by the NCCLS, (Methods for Dilution Antimicrobial Susceptibility Tests for Bacteria that Grow Aerobically, 4th Edition, NCCLS, Villanova, Pa., 1997) using cation-adjusted Mueller-Hinton broth (Difco Laboratories) supplemented with 5% lysed defibrinated horse blood. Trays were prepared in-house. Suspensions with a turbidity equivalent to that of a 0.5 McFarland standard were prepared by suspending growth from blood agar plates in 2 ml Mueller-Hinton broth. Suspensions were further diluted 1:10 to obtain a final inoculum (10 μL) containing 5×10^5 CFU/mL. Trays were incubated 20-24 hours in ambient air at 35° C. Standard quality control strains (as above) were included in each run.
(§4) Standard methodology was used (Clark, et al., J. Clin. Microbiol. 36:3579-3584, 1998). Mueller-Hinton plates supplemented with 5% sheep blood (BBL Microbiology Systems, Cockeysville, Md., USA) were inoculated with a 0.5 McFarland suspension harvested from plates, and E-test strips (AB Biodisk, Solna, Sweden) placed on each. After overnight incubation at 35° C., the MIC was read as the intersect where the ellipse of growth inhibition intersects the strip. E-test MICs were performed both in air and in CO2. E-test MICs were rounded up to the next highest doubling dilution.

[3] = tested on: pneumococci; assay: E-test MICs; conditions: 200 strains
Protocol: as §4, with “Cultures were maintained at −70° C. in double-strength skim milk (Difco Laboratories, Detroit, Mich.). Gemifloxacin susceptibility powder, disks and E-tests (AB Biodisk, Solna, Sweden) were obtained from SmithKline Beecham Laboratories, Collegeville, Pa., USA. Standard” for “Standard”

[4] = tested on: pneumococci; assay: Microdilution MICs (NCCLS); conditions: microdilution (air), 200 strains
Protocol: as §3, with “Cultures were maintained at −70° C. in double-strength skim milk (Difco Laboratories, Detroit, Mich.). Gemifloxacin susceptibility powder, disks and E-tests (AB Biodisk, Solna, Sweden) were obtained from SmithKline Beecham Laboratories, Collegeville, Pa., USA. These” for “These”

[5] = tested on: pneumococci; assay: Disk diffusion, 5 μg gemifloxacin disks; conditions: for zone of inhibition at 5 µg/disc: Streptococcus pneumoniae, 5 μg disk, read-out: zone diameter
Protocol: as §1
This was by standard NCCLS methodology (Performance Standards for Antimicrobial Disk Susceptibility Tests, 6th Edition, NCCLS, Villanova, Pa., 1997) using 5 μg gemifloxacin disks (BBL) and Mueller-Hinton plates supplemented with 5% sheep blood (BBL), inoculated with a 0.5 McFarland suspension. After overnight incubation in both air and 5% CO2 at 35° C., zone diameters were measured with calipers.

[6] = agar dilution (air), all 200 strains
[7] = agar dilution, 39 ciprofloxacin-resistant strains (ciprofloxacin MIC ≧8.0 μg/ml)
[8] = agar dilution, 161 ciprofloxacin-susceptible strains (ciprofloxacin MIC ≦4.0 μg/ml)

CO/N=C1\CN(c2nc3c(cc2F)c(=O)c(C(=O)O)cn3C2CC2)CC1CN (racemic) [Gemifloxacin, (R,S)-7-(3-aminomethyl-4-methoxyiminopyrrolidin-1-yl)-1-cyclopropyl-6-fluoro-4-oxo-1,4-dihydro-1,8-naphthyridine-3-carboxylic acid]
MIC50 [1, 6]: 0.03 µg/mL (≈ 0.077 µM) | MIC90 [1, 6]: 0.25 µg/mL (≈ 0.642 µM) | MIC50 [1, 7]: 0.25 µg/mL (≈ 0.642 µM) | MIC90 [1, 7]: 0.5 µg/mL (≈ 1.28 µM) | MIC50 [1, 8]: 0.03 µg/mL (≈ 0.077 µM) | MIC90 [1, 8]: 0.03 µg/mL (≈ 0.077 µM) | MIC range [1, 6]: 0.004 to 1.0 µg/mL | MIC range ([1]; agar dilution (air), all 200 strains, listed as gemifloxacin): 0.004 to 1 µg/mL | MIC range [1, 7]: 0.03 to 1 µg/mL | MIC range ([1]; agar dilution, 39 ciprofloxacin-resistant strains (ciprofloxacin MIC ≧8.0 μg/ml), listed as gemifloxacin): 0.03 to 1.0 µg/mL | MIC range [1, 8]: 0.004 to 0.06 µg/mL | MIC50s, range over methods [2]: 0.016 to 0.03 µg/mL | MIC90s, range over methods [2]: 0.125 to 0.25 µg/mL | MIC range over all methods [2]: 0.004 to 1.0 µg/mL | MIC50 ([3]; E-test (CO2)): 0.016 µg/mL (≈ 0.0411 µM) | MIC range ([3]; E-test (CO2)): 0.008 to 0.5 µg/mL | MIC range ([3]; E-test (CO2), listed as gemifloxacin): 0.00 to 0.5 µg/mL | MIC range ([3]; E-test (air)): 0.008 to 0.5 µg/mL | MIC90 ([3]; Streptococcus pneumoniae, E-test (CO2)): 0.25 µg/mL (≈ 0.642 µM) | MIC90 ([3]; Streptococcus pneumoniae, E-test (air)): 0.125 µg/mL (≈ 0.321 µM) | MIC50 ([3]; Streptococcus pneumoniae, E-test (air), read-out: MIC50): 0.016 µg/mL (≈ 0.0411 µM) | MIC50 ([4]; Streptococcus pneumoniae): 0.016 µg/mL (≈ 0.0411 µM) | MIC90 ([4]; Streptococcus pneumoniae): 0.125 µg/mL (≈ 0.321 µM) | MIC range [4]: 0.004 to 0.5 µg/mL | zone of inhibition at 5 µg/disc ([5]; in CO2, ciprofloxacin-resistant strains, full range): 18 to 31 mm | zone of inhibition at 5 µg/disc ([5]; in CO2, ciprofloxacin-resistant strains, most strains): 21 to 26 mm | zone of inhibition at 5 µg/disc ([5]; in air, quinolone-resistant strains, most strains): < 31 mm | zone of inhibition at 5 µg/disc ([5]; incubated in CO2, all ciprofloxacin-susceptible strains): ≥ 26 mm | zone of inhibition at 5 µg/disc ([5]; incubated in air, quinolone-susceptible strains): ≥ 28 mm | zone diameter ([5]; most quinolone-susceptible strains): > 25 mm | zone diameter in air wider than in CO2 ([5]; most strains, air versus CO2): 1-3 mm
